Patent publication US7300793B2, “Method for preventing the adhesion of particles” (Evotec Technologies GmbH, priority 2001, dated 2007)

What was measured:
[1] = tested on: Jurkat-cells; test: Cell adherence to polystyrene culture dishes in the presence of various substances, with trypan blue vitality check (Jurkat)
Method: (§1) 50 μl of the cell suspension described above were added.
(§2) The samples were incubated for 30 minutes at 37° C. The supernatant with non-adhered cells was removed and replaced by buffer. The adherence was qualitatively evaluated (refer to table 3). The cells in both supernatant and the wells were stained with trypanblue solution (0.2%, SIGMA Aldrich GmbH, Steinheim) in order to examine the vitality of the cells.

[2] = tested on: U937-cells; test: Cell adherence to polystyrene culture dishes in the presence of various substances, with trypan blue vitality check (U937); settings: for U937 Adherence: 30 minutes at 37° C., polystyrene 24-well plate
Method: as §1, §2

Substance	Jurkat Adherence ([1]; 0.1% in PBS, 30 minutes at 37° C., polystyrene 24-well plate)	U937 Adherence ([2]; 0.1% in PBS)	U937 Adherence ([2]; 0.5% in PBS)	Jurkat Vitality [1] [%]	U937 Vitality [2] [%]
Bovine serum albumin [BSA]	99	999	99		
polyethylene glycol 5,000 [PEG 5,000]				100	100
polyvinyl alcohol [PVA 30,000–70,000]				97	98
polyvinyl pyrrolidone 15 [PVP 15]				100	100
polyvinyl pyrrolidone 25 [PVP 25]				100	100
